Source: US10501413B2, “Inhibitors of the Notch transcriptional activation complex and methods for use of the same” (UNIVERSITY OF MIAMI, priority 2015, dated 2019)

Assays:
NICD1 = molecular target: T1, NICD1 (Homo sapiens, UniProt P46531); assay: Surface plasmon resonance binding to immobilized NICD; settings: SPR, equilibrium response fitted to 1:1 binding model
T1 construct: the intracellular domain of Notch (“NICD”)
Experimental: The inhibitors described herein were subjected to surface plasmon resonance (“SPR”) to determine their binding constants to the NICD and CSL components of the NTC. In particular, the target protein (NICD1) was immobilized on the dextran surface of the SPR sensor chip. Through a microflow system, a solution with the inhibitor was injected over the immobilized protein layer. The inhibitor bound to the immobilized protein, which led to an increase in SPR signal, indicating association of the ligand to the target protein. After 45 seconds, buffer solution was injected on the microfluidics that dissociated the bound complex between the ligand and the inhibitor. As the inhibitor dissociated from the ligand, a decrease in SPR signal was observed. The equilibrium dissociation constant KD was determined by plotting the equilibrium response (Req) as a function of the concentration of the ligand, and fitting the data to a 1:1 binding model. The results are listed in […].

[1] = system: MAML1 and Notch1 occupancy on HES1 promoter in OE33 and 786-0 cells; assay: Chromatin immunoprecipitation (ChIP) on the HES1 locus; assay type: cell-based, human; settings: 24 hours
Experimental: (§1) The effect of inhibitor treatment on the assembly of the NTC in cells was investigated.
Cells (8×10^6 OE33 cells or 10×10^6 786-0 cells) were plated onto a 15 cm tissue culture dish a day prior to treatment. Cells were then treated for 24 hours with (N—[N-(3,5-difluorophenacetyl)-L-alanyl]-S-phenylglycine t-butyl ester (“DAPT”, 5 μM), Inhibitor No. 1-134-83 (25 μM), or DMSO vehicle. Following treatment, cells were cross-linked for 10 minutes with 1% formaldehyde. The reaction was then stopped by adding […] glycine. Cells were collected in SDS lysis buffer (1% SDS, 10 mM EDTA, 50 mM Tris-HCl pH 8.0) and sonicated to yield chromatin fragments of approximately 300 to 800 bp (8 minutes at high level for OE33 cells; 5 minutes at medium level for 786-0 cells in BIORUPTOR UCD-200 sonicator). Lysates were divided into equal parts and immunoprecipitated with either α-Notch1 (A301-894A, Bethyl Laboratories) or α-MAML1 (12166s, Cell Signaling Technology) antibody. Protein:DNA immunoprecipitates were then reverse cross-linked at 65° C. in 200 mM NaCl for 4 hours, followed by incubation with RNase A and proteinase K. DNA was then purified using a PCR purification kit (28104,
Qiagen). Immunoprecipitated DNA was then detected by SYBR green qPCR using HES1 specific oligonucleotide primers (forward: 5′CGTGTCTCCTCCTCCCATT3′; reverse: 5′GGGGGATTCCGCTGTTAT3′).

[2] = system: NICD in OE33 and 786-0 cells; assay: Western analysis of NICD levels; assay type: cell-based, human; settings: OE33 and 786-0 cell lysates
Experimental: as §1
Protein analysis was carried out using conventional SDS-PAGE and transfer techniques. Blots were probed with the indicated antibody (“Ab”), using standard conditions, and detected using enhanced chemiluminescence (“ECL”). The following Ab were used: anti-Notch1 (ab52627, abcam), anti-Notch1^val1744 (4147S, Cell Signaling Technology) and anti-GAPDH (ab9483, Abcam).

[3] = system: Notch-dependent somite formation; assay: Zebrafish somite formation; assay type: in vivo, D. rerio; settings: embryos soaked in 40 μM from 8 hPF, scored at 13 hPF
From the text: The in vivo effects of the inhibitors of the disclosure also were investigated using D. rerio. Notch signaling plays a role in somite formation in developing vertebrate embryos. Changes in levels of Notch signaling (either increased or decreased) during development of the zebrafish embryo result in disruption of the symmetric, bilaterally formed somites, which can be readily observed. Thus, disruption of somitogenesis in zebrafish represents a convenient dose-sensitive readout for Notch pathway stimulation or inhibition. When 100 pg of mNotch1 was injected in mRNA, defects in somitogenesis in 90% of the embryos resulted (compared to 0% disrupted embryos in the control group) (FIG. 5). […] Disruption of somite formation was not observed, however, when embryos were soaked in vehicle control (DMSO). […] On three separate days, multiple clutches of embryos from two or more breeding pairs of the AB wild type line were combined and incubated at 28.5° C. for 8 hours in E3 medium with 0.1% (w/v) methylene blue. The embryos were then placed into fresh E3 medium with 0.1% (w/v) methylene blue containing 50 μM DMSO, 40 μM compound 1-134-83, or nothing. […] At 13 hours post fertilization, samples were collected and scored for the presence of discrete somite boarders on a Zeiss Stemi 2000-CS scope. Data was analyzed using Fisher's exact test in R3.1.0. […]

T1 sequence (P46531 1754-2555 limits assumed): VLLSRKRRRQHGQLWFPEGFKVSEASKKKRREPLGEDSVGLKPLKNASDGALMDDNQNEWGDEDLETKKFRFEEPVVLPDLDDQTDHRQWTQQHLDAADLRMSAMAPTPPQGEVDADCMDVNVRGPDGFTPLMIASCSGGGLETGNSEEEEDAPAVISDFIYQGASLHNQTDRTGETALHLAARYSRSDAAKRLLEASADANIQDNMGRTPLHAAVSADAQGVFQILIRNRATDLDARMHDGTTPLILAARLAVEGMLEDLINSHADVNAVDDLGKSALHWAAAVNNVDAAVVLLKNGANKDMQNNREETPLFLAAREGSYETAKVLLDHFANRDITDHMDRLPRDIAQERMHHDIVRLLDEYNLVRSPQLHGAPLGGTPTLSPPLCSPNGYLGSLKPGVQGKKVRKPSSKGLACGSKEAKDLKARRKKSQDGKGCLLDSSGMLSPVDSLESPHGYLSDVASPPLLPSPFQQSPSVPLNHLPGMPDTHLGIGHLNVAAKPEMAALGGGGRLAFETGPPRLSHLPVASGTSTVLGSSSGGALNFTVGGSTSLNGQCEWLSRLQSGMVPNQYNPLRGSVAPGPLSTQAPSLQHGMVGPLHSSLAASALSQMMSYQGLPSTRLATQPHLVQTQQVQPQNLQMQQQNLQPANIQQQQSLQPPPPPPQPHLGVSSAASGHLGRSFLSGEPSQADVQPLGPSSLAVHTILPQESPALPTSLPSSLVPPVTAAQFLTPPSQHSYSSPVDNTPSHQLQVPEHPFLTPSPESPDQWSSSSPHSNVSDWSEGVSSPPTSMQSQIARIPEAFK

Structure (SMILES): CCOC(=O)COc1ccc(/C=C2\SC(=S)NC2=O)cc1OC [1-134-83]
- Kd (NICD1): 11 ± 3 µM
- occupancy of MAML1 on the HES1 promoter [1]: decreased the occupancy
- occupancy of NOTCH1 on the HES1 promoter [1]: did not affect
- levels of NICD in cells [2]: does not change
- somite formation in embryos [3]: disrupted somites
